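Method: 48-hour compound exposure of cells in 96-well plates, five concentrations, linear interpolation of endpoints. Abbreviation: GI50, concentration required for 50% inhibition of growth.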 Activity calls are given as the source filed them. No stated cut-off is given here; in the data, active = GI50 up to about 1.1 µM and inactive = higher.
What was measured:
Experiment in all cases: NCI-60 cell line screen, 48 h
SK-MEL-28 = system: SK-MEL-28
SNB-19 = system: SNB-19
NCI-H460 = system: NCI-H460
RPMI-8226 = system: RPMI-8226
TK-10 = system: TK-10
K562 = system: K562
MOLT-4 = system: MOLT-4
A498 = system: A498
PC-3 = system: PC-3
CAKI-1 = system: CAKI-1
IGROV-1 = system: IGROV-1
M14 = system: M14
OVCAR-3 = system: OVCAR-3
MDA-MB-231 = system: MDA-MB-231
LOX IMVI = system: LOX IMVI
UO-31 = system: UO-31
MCF7 = system: MCF7
CCRF-CEM = system: CCRF-CEM
SF-295 = system: SF-295
SR = system: SR

CCC(CO)Nc1nc(NCc2ccccc2)c2ncn(C(C)C)c2n1 (stereo not drawn) [(RS)-ROSCOVITINE]
GI50 (SK-MEL-28): 12.8 µM (inactive) | GI50 (SNB-19): 34.9 µM (inactive) | GI50 (NCI-H460): 16.2 µM (inactive) | GI50 (RPMI-8226): 22.6 µM (inactive) | GI50 (TK-10): 24.4 µM (inactive) | GI50 (K562): 46.6 µM (inactive) | GI50 (MOLT-4): 28.5 µM (inactive) | GI50 (A498): 23.9 µM (inactive) | GI50 (PC-3): 17.9 µM (inactive) | GI50 (CAKI-1): 17.4 µM (inactive) | GI50 (IGROV-1): 14.8 µM (inactive) | GI50 (M14): 16.8 µM (inactive) | GI50 (OVCAR-3): 9.23 µM (inactive) | GI50 (MDA-MB-231): 25.8 µM (inactive) | GI50 (LOX IMVI): 16.5 µM (inactive) | GI50 (UO-31): 12.4 µM (inactive) | GI50 (MCF7): 15.7 µM (inactive) | GI50 (CCRF-CEM): 22.6 µM (inactive) | GI50 (SF-295): 19.3 µM (inactive) | GI50 (SR): 7.1 µM (inactive)

COc1ccc(NS(=O)(=O)c2ccc3ncn(NS(=O)(=O)c4ccc(I)cc4)c(=O)c3c2)cc1
GI50 (SK-MEL-28): > 100 µM (inactive) | GI50 (SNB-19): > 100 µM (inactive) | GI50 (NCI-H460): > 100 µM (inactive) | GI50 (RPMI-8226): 6.03 µM (inactive) | GI50 (TK-10): > 100 µM (inactive) | GI50 (K562): 7.26 µM (inactive) | GI50 (MOLT-4): > 100 µM (inactive) | GI50 (A498): > 100 µM (inactive) | GI50 (PC-3): > 100 µM (inactive) | GI50 (CAKI-1): > 100 µM (inactive) | GI50 (IGROV-1): > 100 µM (inactive) | GI50 (M14): > 100 µM (inactive) | GI50 (OVCAR-3): > 100 µM (inactive) | GI50 (MDA-MB-231): > 100 µM (inactive) | GI50 (LOX IMVI): 8.77 µM (inactive) | GI50 (UO-31): 43.3 µM (inactive) | GI50 (MCF7): > 100 µM (inactive) | GI50 (CCRF-CEM): 64.7 µM (inactive) | GI50 (SF-295): > 100 µM (inactive) | GI50 (SR): 72.9 µM (inactive)

CNC=O
GI50 (SK-MEL-28): > 10000 µM (inactive) | GI50 (SNB-19): > 10000 µM (inactive) | GI50 (NCI-H460): > 10000 µM (inactive) | GI50 (RPMI-8226): > 10000 µM (inactive) | GI50 (TK-10): > 10000 µM (inactive) | GI50 (K562): > 10000 µM (inactive) | GI50 (MOLT-4): > 10000 µM (inactive) | GI50 (A498): > 9710 µM (inactive) | GI50 (PC-3): > 10000 µM (inactive) | GI50 (CAKI-1): > 10000 µM (inactive) | GI50 (IGROV-1): > 10000 µM (inactive) | GI50 (M14): > 10000 µM (inactive) | GI50 (OVCAR-3): > 9310 µM (inactive) | GI50 (MDA-MB-231): > 10000 µM (inactive) | GI50 (LOX IMVI): > 9180 µM (inactive) | GI50 (UO-31): > 10000 µM (inactive) | GI50 (MCF7): > 10000 µM (inactive) | GI50 (CCRF-CEM): > 10000 µM (inactive) | GI50 (SF-295): > 9510 µM (inactive) | GI50 (SR): > 10000 µM (inactive)

C=C(CN(C)C)C(=O)c1ccc(OC)cc1
GI50 (SK-MEL-28): 3.49 µM (inactive) | GI50 (SNB-19): 20 µM (inactive) | GI50 (NCI-H460): 21.8 µM (inactive) | GI50 (RPMI-8226): 2.11 µM (inactive) | GI50 (TK-10): 2.24 µM (inactive) | GI50 (K562): 0.622 µM (active) | GI50 (MOLT-4): 0.52 µM (active) | GI50 (A498): 9.79 µM (inactive) | GI50 (PC-3): 15.2 µM (inactive) | GI50 (CAKI-1): 1.5 µM (inactive) | GI50 (IGROV-1): 10.7 µM (inactive) | GI50 (M14): 2.5 µM (inactive) | GI50 (OVCAR-3): 2.77 µM (inactive) | GI50 (MDA-MB-231): 11.6 µM (inactive) | GI50 (LOX IMVI): 4.49 µM (inactive) | GI50 (UO-31): 2.55 µM (inactive) | GI50 (MCF7): 2.77 µM (inactive) | GI50 (CCRF-CEM): 0.186 µM (active) | GI50 (SF-295): 28.5 µM (inactive) | GI50 (SR): 1.05 µM (active)

C=C1C(=O)OC2CC(C)C(C(CC(C)=O)OC(C)=O)=CCC12 (stereo not given)
GI50 (SK-MEL-28): 8.24 µM (inactive) | GI50 (SNB-19): 36.6 µM (inactive) | GI50 (NCI-H460): 17 µM (inactive) | GI50 (RPMI-8226): 3.87 µM (inactive) | GI50 (TK-10): 17.3 µM (inactive) | GI50 (K562): 3.24 µM (inactive) | GI50 (MOLT-4): 4.07 µM (inactive) | GI50 (A498): 18.7 µM (inactive) | GI50 (PC-3): 19.3 µM (inactive) | GI50 (CAKI-1): 3.16 µM (inactive) | GI50 (IGROV-1): 13.3 µM (inactive) | GI50 (M14): 11 µM (inactive) | GI50 (OVCAR-3): 7.06 µM (inactive) | GI50 (MDA-MB-231): 13.5 µM (inactive) | GI50 (LOX IMVI): 6.78 µM (inactive) | GI50 (UO-31): 16.2 µM (inactive) | GI50 (MCF7): 4.74 µM (inactive) | GI50 (CCRF-CEM): 2.61 µM (inactive) | GI50 (SF-295): 23.8 µM (inactive) | GI50 (SR): 2.88 µM (inactive)

S=C1c2ccc(Cl)cc2-n2cnnc2C2CSCN12 (stereo not given)
GI50 (SK-MEL-28): > 100 µM (inactive) | GI50 (SNB-19): > 100 µM (inactive) | GI50 (NCI-H460): > 100 µM (inactive) | GI50 (RPMI-8226): > 100 µM (inactive) | GI50 (TK-10): > 100 µM (inactive) | GI50 (K562): 13.9 µM (inactive) | GI50 (MOLT-4): > 100 µM (inactive) | GI50 (A498): > 100 µM (inactive) | GI50 (PC-3): > 100 µM (inactive) | GI50 (CAKI-1): > 100 µM (inactive) | GI50 (IGROV-1): > 100 µM (inactive) | GI50 (M14): > 100 µM (inactive) | GI50 (OVCAR-3): > 100 µM (inactive) | GI50 (MDA-MB-231): > 100 µM (inactive) | GI50 (LOX IMVI): > 100 µM (inactive) | GI50 (UO-31): > 100 µM (inactive) | GI50 (MCF7): > 100 µM (inactive) | GI50 (CCRF-CEM): > 100 µM (inactive) | GI50 (SF-295): > 100 µM (inactive) | GI50 (SR): 52.4 µM (inactive)

Source: ChEMBL document CHEMBL1201862, “PubChem BioAssay data set” (2004)
